Laboratory results taken from US20200330429A1, “METHOD OF TREATING TRUNCAL ACNE WITH TRIFAROTENE” (priority 2019, published 2020).

Legend:
moderate facial acne [1] = assay: PERFECT 1, 12-week vehicle-controlled study, facial acne efficacy; assay type: in vivo, human
Method: (§1) A multi-center (United States, Canada, Europe and Russia), 12-week, double-blinded, and vehicle controlled group study with a 1:1 randomization pattern (once daily trifarotene 50 μg/g or vehicle cream) was conducted in subjects with moderate facial and truncal acne. Enrolled patients or caregivers received instruction about how to apply a thin layer of study drug daily at bedtime on the face and self-reachable trunk. Patients were also instructed to cleanse the skin and not to apply moisturizer one hour before or one hour after study drug application. Use of moisturizer was encouraged from the initiation of treatment. Investigators could reduce the frequency of application to alternate days for a maximum of 2 weeks in the first 4 weeks following the Baseline visit when needed to manage irritation. The patients were selected based on the following criteria.
Inclusion Criteria: • 1. Male or female patients 9 years or older. • 2. Moderate facial acne, defined as: Investigator Global Assessment (IGA) score of 3 on the face. Minimum of 20 inflammatory lesions and 25 non-inflammatory lesions on the face at Screening and Baseline • 3. Moderate truncal acne with Physician Global Assessment (PGA) score of 3 at Screening and Baseline. Minimum of 20 inflammatory lesions and 20 non-inflammatory lesions but no more than 100 non-inflammatory lesion counts on the trunk (shoulders, upper back and upper anterior chest) reachable to self-application of study drug by the subject at Screening and Baseline (optional criterion for subject between 9 and 11 years of age). • 4. Accessible treated areas of the trunk were defined for the study. The trunk anatomical region assessment was pre-defined by a size-fitted T-shirt (patent # US00D7580485, Jun. 7, 2016). This ensured consistency for study assessment areas throughout the study duration. • 5. […]
(§2) Severity definitions for IGA and PGA scales [5-point scales ranging from 0 (clear) to 4 (severe)] were the same. Lesion counts were performed and IGA and PGA were assessed at Screening, Baseline, and Weeks 1, 2, 4, 8, and 12/ET visits. […]

moderate truncal acne [2] = assay: PERFECT 2, 12-week vehicle-controlled study, truncal acne efficacy; assay type: in vivo, human
Method: as §1
(§3) Inclusion Criteria: • 1. Male or female patients 9 years or older. • 2. Moderate facial acne, defined as: Investigator Global Assessment (IGA) score of 3 on the face. Minimum of 20 inflammatory lesions and 25 non-inflammatory lesions on the face at Screening and Baseline • 3. […]
as §2

moderate truncal acne [3] = assay: SATisFy 52-week study, truncal acne efficacy; assay type: in vivo, human
Method: (§4) A multi-center, 52-week, […] group study (SATisFy) with once daily trifarotene 50 μg/g was conducted in subjects with moderate facial and truncal acne. The screening/baseline weeks were 1, 2, 4, 8, 12, 20, 26, 38 & week 52. Inclusion/exclusion criteria and assessment are as described in Example 1, unless mentioned otherwise. Additional assessments may include subject's facial acne assessment, quality of life (DLQI and CDLQI) and standard facial and trunk photography.
(§5) Efficacy • Success rate: IGA/PGA score of 2 grade in improvement and Clear (0) or Almost Clear (1) • Grade change from baseline of IGA & PGA • Subject's assessment of facial acne improvement.

moderate facial acne [4] = assay: SATisFy 52-week study, facial acne efficacy and quality of life; assay type: in vivo, human
Method: as §4, §5

moderate facial acne [5] = assay: PERFECT 2, 12-week vehicle-controlled study, facial acne efficacy; assay type: in vivo, human
Method: as §1
Inclusion Criteria: • 1. Male or female patients 9 years or older. • 2. Moderate facial acne, defined as: Investigator Global Assessment (IGA) score of 3 on the face. Minimum of 20 inflammatory lesions and 25 non-inflammatory lesions on the face at Screening and Baseline • 3. Moderate truncal acne with Physician Global Assessment (PGA) score of 3 at Screening and Baseline. Minimum of 20 inflammatory lesions and 20 non-inflammatory lesions but no more than 100 non-inflammatory lesion counts on the trunk (shoulders, upper back and upper anterior chest) reachable to self-application of study drug by the subject at Screening and Baseline (optional criterion for subject between 9 and 11 years of age). • 4. Accessible treated areas of the trunk were defined for the study. The trunk anatomical region assessment was pre-defined by a size-fitted T-shirt (patent # US00D7580485, Jun. 7, 2016). This ensured consistency for study assessment areas throughout the study duration. • 5. For subjects aged 9 to 11 years, inclusion criteria regarding truncal acne were optional due to relative rarity of trunk involvement (compared with face) in this age group.
Primary Efficacy Endpoints • Success rate, defined as the percentage of subjects who achieved an IGA score on the face of 1 (Almost Clear) or 0 (Clear) and at least a 2-grade improvement from Baseline to Week 12. • Absolute and percent change (supportive efficacy endpoint) in facial inflammatory lesion count from Baseline to Week 12. • Absolute and percent change (supportive efficacy endpoint) in facial non-inflammatory lesion count from Baseline to Week 12.
Severity definitions for IGA and PGA scales [5-point scales ranging from 0 (clear) to 4 (severe)] were the same. Lesion counts were performed and IGA and PGA were assessed at Screening, Baseline, and Weeks 1, 2, 4, 8, and 12/ET visits.
Trifarotene or the vehicle were applied once daily in the evening for 12 weeks. […]

keratinocytes = conditions: cited from earlier work
[6] = hepatic microsomes; cited from earlier work
[7] = system: subjects with moderate facial and truncal acne; assay: PERFECT 2 safety: local tolerability and adverse events; assay type: in vivo, human
Method: as §1
(§6) Safety was assessed through adverse events, vital signs and routine laboratory testing. Safety assessments included treatment emergent adverse events (TEAE5), standard laboratory safety tests at screening and last study visit including hematology, blood chemistry, and urinalysis (Barc Central Laboratory, US and Belgium), physical examination, and monitoring of vital signs. Local tolerability signs/symptoms expected with a topical retinoid were collected separately from adverse events to better characterize the tolerability profile of trifarotene cream. These included erythema, scaling, dryness, and stinging/burning scored on a 4-point scale, none=0, mild=1, moderate=2, severe=3. Subjects were specifically queried at each study visit, including Baseline, for the presence of local signs or symptoms. Signs and/or symptoms of local cutaneous irritation assessed with the tolerability scale were considered to be Adverse Events if they were severe enough to lead to permanent discontinuation of study product treatment or required use of concomitant treatment including over-the-counter products (other than moisturizers). Subjects were assessed at screening/baseline and Weeks 1, 2, 4, 8 and 12.
(§7) Trifarotene or the vehicle were applied once daily in the evening for 12 weeks. The liberal use of a non-comedogenic and hypoallergenic moisturizer and non-comedogenic sunscreen was allowed. Trifarotene or the vehicle were not to be applied to cuts, abrasions, eczematous, or sunburned skin.

[8] = system: subjects with moderate facial and truncal acne; assay: PERFECT 1 and PERFECT 2, statements for both studies together; assay type: in vivo, human
Method: Enrolled patients or caregivers received instruction about how to apply a thin layer of study drug daily at bedtime on the face and self-reachable trunk. Patients were also instructed to cleanse the skin and not to apply moisturizer one hour before or one hour after study drug application. Use of moisturizer was encouraged from the initiation of treatment. […] The patients were selected based on the following criteria. […] Lesion counts were performed and IGA and PGA were assessed at Screening, Baseline, and Weeks 1, 2, 4, 8, and 12/ET visits. Safety was assessed through adverse events, vital signs and routine laboratory testing. Safety assessments included treatment emergent adverse events (TEAE5), standard laboratory safety tests at screening and last study visit including hematology, blood chemistry, and urinalysis (Barc Central Laboratory, US and Belgium), physical examination, and monitoring of vital signs. Local tolerability signs/symptoms expected with a topical retinoid were collected separately from adverse events to better characterize the tolerability profile of trifarotene cream. […] Subjects were specifically queried at each study visit, including Baseline, for the presence of local signs or symptoms. Signs and/or symptoms of local cutaneous irritation assessed with the tolerability scale were considered to be Adverse Events if they were severe enough to lead to permanent discontinuation of study product treatment or required use of concomitant treatment including over-the-counter products (other than moisturizers). […] Trifarotene or the vehicle were applied once daily in the evening for 12 weeks. The liberal use of a non-comedogenic and hypoallergenic moisturizer and non-comedogenic sunscreen was allowed. Trifarotene or the vehicle were not to be applied to cuts, abrasions, eczematous, or sunburned skin.

[9] = system: subjects with moderate facial and truncal acne; assay: PERFECT 1 safety: local tolerability and adverse events; assay type: in vivo, human
Method: as §1, §6, §7

moderate truncal acne [10] = assay: PERFECT 1, 12-week vehicle-controlled study, truncal acne efficacy; assay type: in vivo, human
Method: as §1, §3, §2

[11] = week 12, trunk population, SATisFy
[12] = week 52, trunk population, SATisFy

SMILES: CC(C)(C)c1cc(-c2cc(-c3ccc(C(=O)O)cc3)ccc2OCCO)ccc1N1CCCC1 [trifarotene, 3″-tert-Butyl-4′-(2-hydroxy-ethoxy)-4″-pyrrolidin-1-yl-[1,1′,3′,1″]terphenyl-4-carboxylic acid]
- statistically significant superior facial IGA success rates vs vehicle, at week (moderate facial acne [1]; PERFECT 1): 4 week
- Inflammatory Lesions Mean Absolute Change from baseline (moderate facial acne [1]; face, Week 12, PERFECT 1): −19.0
- IGA Success (%) (moderate facial acne [1]; face, Week 12, PERFECT 1, 50 μg/g once daily): 29.4%
- statistically significantly superior reductions in inflammatory and non-inflammatory lesions on the trunk, starting by week (moderate truncal acne [2]; PERFECT 2): 2 week
- PGA Success (%) (moderate truncal acne [2]; trunk, Week 12, PERFECT 2): 42.6%
- overall success rate in same subject for truncal acne (moderate truncal acne [3]; Wk12 (87/396)): 22.0%
- overall success rate in same subject for truncal acne (moderate truncal acne [3]; Wk20 (138/375)): 36.8%
- overall success rate in same subject for truncal acne (moderate truncal acne [3]; Wk26 (157/363)): 43.3%
- overall success rate in same subject for truncal acne (moderate truncal acne [3]; Wk38 (177/355)): 49.9%
- overall success rate in same subject for truncal acne (moderate truncal acne [3]; Wk52 (199/344)): 57.9%
- PGA success rates (moderate truncal acne [3]; [11]): 38.6%
- trunk IGA success rates (moderate truncal acne [3]; [11]): 26.6%
- success rates (IGA) (moderate truncal acne [3]; [12]): 65.1%
- success rates (PGA) (moderate truncal acne [3]; [12]): 66.9%
- success rates, facial acne (moderate facial acne [4]; Wk12 (166/401)): 41.4%
- success rates, facial acne (moderate facial acne [4]; Wk26 (201/367)): 54.8%
- success rates, facial acne (moderate facial acne [4]; Wk52 (233/350)): 66.6%
- subjects who reported that acne had no effect on quality of life (moderate facial acne [4]; week 52 (92/171), 22.6% at Baseline): 53.8%
- statistically significant superior facial IGA success rates vs vehicle, at week (moderate facial acne [5]; PERFECT 2): 8 week
- Inflammatory Lesions Mean Absolute Change from baseline (moderate facial acne [5]; face, Week 12, PERFECT 2): −24.2
- Non-inflammatory Lesions Mean Absolute Change from baseline (moderate facial acne [5]; face, Week 12, PERFECT 2): −30.1
- IGA Success (%) (moderate facial acne [5]; face, Week 12, PERFECT 2, 50 μg/g once daily): 42.3%
- metabolic stability (keratinocytes): metabolically stable
- metabolism [6]: rapidly metabolized
- Severe AEs considered related to trifarotene therapy, subjects [7]: 3 subjects
- Severe related AE: application site erosion, number [7]: 1
- Severe related AE: application site irritation, number [7]: 1
- Severe related AE: application site pain, number [7]: 1
- changes in vital signs, physical exams and laboratory parameters ([8]; PERFECT 1 and PERFECT 2): no significant clinically relevant changes
- serious AEs ([8]; PERFECT 1 and PERFECT 2): no AE was serious
- success rates on the trunk statistically significant vs vehicle, starting at week ([8]; both studies): 8 week
- facial lesion count reductions, statistical differences vs vehicle apparent as early as week ([8]; face): 1-2 week
- Severe AEs considered related to trifarotene therapy, subjects [9]: 6 subjects
- Severe related AE: dermatitis allergic, number [9]: 1
- Severe related AE: skin irritation, number [9]: 4
- Severe related AE: sunburn, number [9]: 1
- statistically significantly superior reductions in inflammatory and non-inflammatory lesions on the trunk, starting by week (moderate truncal acne [10]; PERFECT 1): 4 week
- PGA Success (%) (moderate truncal acne [10]; trunk, Week 12, PERFECT 1): 35.7%
